Molecules are shown by their SMILES.

The target of assay [1] is T1, 11β-HSD1 (Homo sapiens, UniProt P28845). The assay can be described thus: biochemical. The note with it: for inhibition at 0.1 µM: read-out: Average % inhibition at 100 nM.
Assay [2] concerns the target T1, 11β-HSD1. Briefly: Biological Test Example 4: microsomal 11β-HSD1 in the presence of 50% human plasma. The note with it: for Shift: IC50 in Test Example 4 divided by IC50 in Test Example 1.
[3] abbreviates: Biological Test Example 1 IC50 (nM).
[4] abbreviates: IC50 Range, Biological Test Example 1.

T1 sequence (P28845 whole entry): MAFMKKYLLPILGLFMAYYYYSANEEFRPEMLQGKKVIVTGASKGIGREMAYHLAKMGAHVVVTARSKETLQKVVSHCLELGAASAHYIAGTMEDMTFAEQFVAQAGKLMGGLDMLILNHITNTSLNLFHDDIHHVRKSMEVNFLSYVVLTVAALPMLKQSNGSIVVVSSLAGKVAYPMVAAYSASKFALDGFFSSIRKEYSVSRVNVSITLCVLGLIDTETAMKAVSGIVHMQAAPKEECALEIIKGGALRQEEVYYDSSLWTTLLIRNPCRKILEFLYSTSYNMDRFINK

For orientation: IC50 means the concentration that gives 50% inhibition. In general, inhibition refers to the relative decrease from the control value, in per cent. `Cc1cc(-c2ccc([C@H](C)N3CC[C@](CCNS(C)(=O)=O)(c4ccccc4)OC3=O)cc2)ccn1` [EXAMPLE 103, N-(2-((S)-3-((S)-1-(4-(2-methylpyridin-4-yl)phenyl)ethyl)-2-oxo-6-phenyl-1,3-oxazinan-6-yl)ethyl)methanesulfonamide]: the figures for the IC50 in assay [1] (setting [3]), in assay [1] (setting [4]) and in assay [2] were 1.9 nM, below 100 nM and 8.2 nM, respectively. The inhibition at 0.1 µM in assay [1] worked out at 98.5%. Further, the Shift in assay [2] is 4.3.
With `C[C@@H](c1ccc(-c2cccc(OC3CCCC3)n2)cc1)N1CC[C@](CC(C)(C)O)(c2ccccc2)OC1=O` [EXAMPLE 28, (S)-3-((S)-1-(4-(6-(cyclopentyloxy)pyridin-2-yl)phenyl)ethyl)-6-(2-hydroxy-2-methylpropyl)-6-phenyl-1,3-oxazinan-2-one], the IC50 is 1.4 nM in assay [1] (setting [3]), below 100 nM in assay [1] (setting [4]) and 186 nM in assay [2]. Further, the inhibition at 0.1 µM in assay [1] came out at 89.7%. Moreover, the Shift in assay [2] turned out to be 129.7.
For the compound `Cc1cc(-c2ccc([C@H](C)N3CC[C@](CCCNS(C)(=O)=O)(c4ccccc4)OC3=O)cc2)ccn1` [EXAMPLE 99, N-(3-((R)-3-((S)-1-(4-(2-methylpyridin-4-yl)phenyl)ethyl)-2-oxo-6-phenyl-1,3-oxazinan-6-yl)propyl)methanesulfonamide], the figures for the IC50 in assay [1] (setting [3]), in assay [1] (setting [4]) and in assay [2] were 0.5 nM, below 100 nM and 7.9 nM, respectively. For the same compound, the inhibition at 0.1 µM in assay [1] was 98.5%. The Shift in assay [2] is on record as 16.6.
For `Cc1cc(-c2ccc([C@H](C)N3CC[C@](CCC(=O)O)(c4ccc(F)cc4)OC3=O)cc2)ccn1` [EXAMPLE 77, 3-((R)-6-(4-fluorophenyl)-3-((S)-1-(4-(2-methylpyridin-4-yl)phenyl)ethyl)-2-oxo-1,3-oxazinan-6-yl)propanoic acid], the IC50 is 38.1 nM in assay [1] (setting [3]), below 100 nM in assay [1] (setting [4]) and 114 nM in assay [2]. Further, the inhibition at 0.1 µM in assay [1] came to 79.9%. Also, the Shift in assay [2] is reported as 3.0.
In the case of `CC(=O)N(C)CCC[C@]1(c2ccccc2)CCN([C@@H](C)c2ccc(-c3ccnc(C)c3)cc2)C(=O)O1` [EXAMPLE 102, N-methyl-N-(3-((R)-3-((S)-1-(4-(2-methylpyridin-4-yl)phenyl)ethyl)-2-oxo-6-phenyl-1,3-oxazinan-6-yl)propyl)acetamide], the values for the IC50 in assay [1] (setting [3]), in assay [1] (setting [4]) and in assay [2] were 3.6 nM, below 100 nM and 63 nM, respectively. Besides, in assay [1], the inhibition at 0.1 µM worked out at 94.3%. Also, the Shift in assay [2] is on record as 17.3.
For `C[C@@H](c1ccc(-c2cccc(N(C)C)n2)cc1)N1CC[C@](CC(C)(C)O)(c2ccccc2)OC1=O` [EXAMPLE 30, (S)-3-((S)-1-(4-(6-(dimethylamino)pyridin-2-yl)phenyl)ethyl)-6-(2-hydroxy-2-methylpropyl)-6-phenyl-1,3-oxazinan-2-one], the IC50 in assay [1] (setting [3]) is 0.9 nM; in assay [1] (setting [4]), below 100 nM; in assay [2], 21.8 nM. Moreover, the inhibition at 0.1 µM in assay [1] worked out at 98.1%. Also, the Shift in assay [2] was found to be 24.0.
Regarding `C[C@@H](c1ccc(-c2ccc(C(F)(F)F)cn2)cc1)N1CC[C@](CCCO)(c2ccc(F)cc2)OC1=O` [EXAMPLE 109, (R)-6-(4-fluorophenyl)-6-(3-hydroxypropyl)-3-((S)-1-(4-(5-(trifluoromethyl)pyridin-2-yl)phenyl)ethyl)-1,3-oxazinan-2-one], the results for the IC50 in assay [1] (setting [3]), in assay [1] (setting [4]) and in assay [2] were 2.9 nM, below 100 nM and 31.9 nM, respectively. Moreover, in assay [1], the inhibition at 0.1 µM was 91.5%. Further, the Shift in assay [2] was 11.0.
For `COc1ccc(-c2ccc([C@H](C)N3CC[C@](CCO)(c4ccc(F)cc4)OC3=O)cc2)cn1` [EXAMPLE 63, (S)-6-(4-fluorophenyl)-6-(2-hydroxyethyl)-3-((S)-1-(4-(6-methoxypyridin-3-yl)phenyl)ethyl)-1,3-oxazinan-2-one] the same measures were 0.8 nM, below 100 nM, 15.2 nM, 101% and 18.4.
Turning to `Cc1ccc(-c2ccc([C@H](C)N3CC[C@](CCCO)(c4ccc(F)cc4)OC3=O)cc2)nn1` [EXAMPLE 114, (R)-6-(4-fluorophenyl)-6-(3-hydroxypropyl)-3-((S)-1-(4-(6-methylpyridazin-3-yl)phenyl)ethyl)-1,3-oxazinan-2-one], the IC50 is 0.9 nM in assay [1] (setting [3]), below 100 nM in assay [1] (setting [4]) and 3.9 nM in assay [2]. In addition, the inhibition at 0.1 µM in assay [1] is 98.9%. In addition, the Shift in assay [2] is on record as 4.5.
As for `Cc1cn(-c2ncc(-c3ccc([C@H](C)N4CC[C@](CC(C)(C)O)(c5ccccc5)OC4=O)cc3)cn2)c(C)n1` [EXAMPLE 26, (S)-3-((S)-1-(4-(2-(2,4-dimethyl-1H-imidazol-1-yl)pyrimidin-5-yl)phenyl)ethyl)-6-(2-hydroxy-2-methylpropyl)-6-phenyl-1,3-oxazinan-2-one], the IC50 in assay [1] (setting [3]) is 1.7 nM; in assay [1] (setting [4]), below 100 nM; in assay [2], 6.8 nM. Further, the inhibition at 0.1 µM in assay [1] was found to be 95.2%. In assay [2], the Shift is listed as 4.1.
As for `C[C@@H](c1ccc(-c2cnc(C#N)cn2)cc1)N1CC[C@](CC(C)(C)O)(c2ccc(F)cc2)OC1=O` [EXAMPLE 153, 5-(4-((S)-1-((S)-6-(4-fluorophenyl)-6-(2-hydroxy-2-methylpropyl)-2-oxo-1,3-oxazinan-3-yl)ethyl)phenyl)pyrazine-2-carbonitrile], the IC50 in assay [1] (setting [3]) was 1.7 nM; in assay [1] (setting [4]), below 100 nM; in assay [2], 9.2 nM. The inhibition at 0.1 µM in assay [1] turned out to be 94.7%. Moreover, the Shift in assay [2] is 5.4.
For `C=CC[C@]1(c2ccc(F)cc2)CCN([C@@H](C)c2ccc(-n3ccc(C(F)(F)F)n3)cc2)C(=O)O1` [EXAMPLE 43, (R)-6-allyl-6-(4-fluorophenyl)-3-((S)-1-(4-(3-(trifluoromethyl)-1H-pyrazol-1-yl)phenyl)ethyl)-1,3-oxazinan-2-one] the same measures were 8.6 nM, below 100 nM, 315 nM, 86.2% and 36.5.
Consider `C[C@@H](c1ccc(-c2ccc(C(C)(C)C)nn2)cc1)N1CC[C@](CC(C)(C)O)(c2ccccc2)OC1=O` [EXAMPLE 6, (S)-3-((S)-1-(4-(6-tert-butylpyridazin-3-yl)phenyl)ethyl)-6-(2-hydroxy-2-methylpropyl)-6-phenyl-1,3-oxazinan-2-one], for which the IC50 in assay [1] (setting [3]) is 1 nM; in assay [1] (setting [4]), below 100 nM; in assay [2], 8.6 nM. The inhibition at 0.1 µM in assay [1] worked out at 96.3%. For the same compound, the Shift in assay [2] came to 8.4.
On to `C[C@@H](c1ccc(-c2ncc(C(=O)NC(C)(C)C)s2)cc1)N1CC[C@](CC(C)(C)C#N)(c2ccccc2)OC1=O` [EXAMPLE 24, N-tert-butyl-2-(4-((S)-1-((R)-6-(2-cyano-2-methylpropyl)-2-oxo-6-phenyl-1,3-oxazinan-3-yl)ethyl)phenyl)thiazole-5-carboxamide], for which the values for the IC50 in assay [1] (setting [3]), in assay [1] (setting [4]) and in assay [2] were 0.8 nM, below 100 nM and 4.4 nM, respectively. Besides, the inhibition at 0.1 µM in assay [1] was 96.9%. In assay [2], the Shift is listed as 5.2.
As for `C[C@@H](c1ccc(-c2ccccn2)cc1)N1CC[C@](CC(C)(C)O)(c2ccccc2)OC1=O` [EXAMPLE 86, (S)-6-(2-hydroxy-2-methylpropyl)-6-phenyl-3-((S)-1-(4-(pyridin-2-yl)phenyl)ethyl)-1,3-oxazinan-2-one], the IC50 is 0.6 nM in assay [1] (setting [3]), below 100 nM in assay [1] (setting [4]) and 6.4 nM in assay [2]. Moreover, in assay [1], the inhibition at 0.1 µM was 99.6%. In assay [2], the Shift turned out to be 11.1.
For the compound `C[C@@H](c1ccc(-c2ccccn2)cc1)N1CC[C@](CCO)(c2ccccc2)OC1=O` [EXAMPLE 85, (S)-6-(2-hydroxyethyl)-6-phenyl-3-((S)-1-(4-(pyridin-2-yl)phenyl)ethyl)-1,3-oxazinan-2-one], the IC50 was 0.9 nM in assay [1] (setting [3]), below 100 nM in assay [1] (setting [4]) and 12.9 nM in assay [2]. Moreover, the inhibition at 0.1 µM in assay [1] was 94.3%.
`Cc1cc(-c2ccc([C@H](C)N3CC[C@](CCN(C)S(C)(=O)=O)(c4ccccc4)OC3=O)cc2)ccn1` [EXAMPLE 117, N-methyl-N-(2-((S)-3-((S)-1-(4-(2-methylpyridin-4-yl)phenyl)ethyl)-2-oxo-6-phenyl-1,3-oxazinan-6-yl)ethyl)methanesulfonamide]: the IC50 was 1.7 nM in assay [1] (setting [3]), below 100 nM in assay [1] (setting [4]) and 12.1 nM in assay [2]. Also, the inhibition at 0.1 µM in assay [1] came out at 93.9%. In addition, the Shift in assay [2] worked out at 7.3.
For `C[C@@H](c1ccc(-c2ccncc2)cc1)N1CC[C@](CCC(N)=O)(c2ccccc2)OC1=O` [EXAMPLE 48, 3-((R)-2-oxo-6-phenyl-3-((S)-1-(4-(pyridin-4-yl)phenyl)ethyl)-1,3-oxazinan-6-yl)propanamide], the IC50 was 1 nM in assay [1] (setting [3]), below 100 nM in assay [1] (setting [4]) and 3.9 nM in assay [2]. Further, in assay [1], the inhibition at 0.1 µM was found to be 94.3%.
Regarding `C[C@@H](c1ccc(-c2cc(C#N)ccn2)cc1)N1CC[C@](CC(C)(C)O)(c2ccccc2)OC1=O` [EXAMPLE 164, 2-(4-((S)-1-((S)-6-(2-hydroxy-2-methylpropyl)-2-oxo-6-phenyl-1,3-oxazinan-3-yl)ethyl)phenyl)isonicotinonitrile], the values for the IC50 in assay [1] (setting [3]), in assay [1] (setting [4]) and in assay [2] were 1.2 nM, below 100 nM and 22.2 nM, respectively. Besides, the inhibition at 0.1 µM in assay [1] is 99.4%. The Shift in assay [2] is listed as 18.2.
Regarding `Cc1cc(-c2ccc([C@H](C)N3CC[C@](CCO)(c4ccccc4)OC3=O)cc2)ccn1` [EXAMPLE 96, (S)-6-(2-hydroxyethyl)-3-((S)-1-(4-(2-methylpyridin-4-yl)phenyl)ethyl)-6-phenyl-1,3-oxazinan-2-one], the results for the IC50 in assay [1] (setting [3]), in assay [1] (setting [4]) and in assay [2] were 0.7 nM, below 100 nM and 5.6 nM, respectively. Moreover, the inhibition at 0.1 µM in assay [1] was determined as 99.8%.
